Reference: patent US7989451B2, “Tricyclic 1,2,4-triazine oxides and compositions for therapeutic use in cancer treatments” (Auckland Uniservices Limited, priority 2005, dated 2011)

Row | melting point | Compound
1 | 153 to 155 °C | CCNc1n[n+]([O-])c2cc3c(cc2[n+]1[O-])CC(CO)C3 (centres unmarked) [Compound 127, [3-(Ethylamino)-1,4-dioxido-7,8-dihydro-6H-indeno[5,6-e][1,2,4]triazin-7-yl]methanol]
2 | 122 to 123 °C | CCc1nc2cc3c(cc2[n+]([O-])n1)CC(CO)C3 (centres unmarked) [Compound 142, (3-Ethyl-1-oxido-7,8-dihydro-6H-indeno[5,6-e][1,2,4]triazin-7-yl)methanol]
3 | 111 to 112 °C | CCc1nc2cc3c(cc2[n+]([O-])n1)CC(CN1CCOCC1)C3 (centres unmarked) [Compound 143, 3-Ethyl-7-(4-morpholinylmethyl)-7,8-dihydro-6H-indeno[5,6-e][1,2,4]triazine 1-Oxide]
4 | 230 to 235 °C | Nc1nc2cc3c(cc2[n+]([O-])n1)CC(CCO)C3 (centres unmarked) [Compound 157, 2-(3-Amino-1-oxido-7,8-dihydro-6H-indeno[5,6-e][1,2,4]triazin-7-yl)ethanol]
5 | 96 to 99 °C | [O-][n+]1nc(I)nc2cc3c(cc21)CC(CCO)C3 (centres unmarked) [Compound 158, 2-(3-Iodo-1-oxido-7,8-dihydro-6H-indeno[5,6-e][1,2,4]triazin-7-yl)ethanol]
6 | 80 to 82 °C | [O-][n+]1nc(I)nc2cc3c(cc21)CC(CCOC1CCCCO1)C3 (centres unmarked) [Compound 159, 3-Iodo-7-(2-(tetrahydro-2H-pyran-2-yloxy)ethyl)-7,8-dihydro-6H-indeno[5,6-e][1,2,4]triazine 1-Oxide]
7 | 96 to 99 °C | CCc1nc2cc3c(cc2[n+]([O-])n1)CC(CCO)C3 (centres unmarked) [Compound 161, 2-(3-Ethyl-1-oxido-7,8-dihydro-6H-indeno[5,6-e][1,2,4]triazin-7-yl)ethanol]
8 | 271 °C (dec.) | Nc1nc2ccc3c(c2[n+]([O-])n1)CCCC3 [Compound 170, 7,8,9,10-Tetrahydronaphtho[2,1-e][1,2,4]triazin-3-amine 1-Oxide]
9 | 151 to 153 °C | CN(C)CCNc1nc2ccc3c(c2[n+]([O-])n1)CCCC3 [Compound 172, N^1,N^1-Dimethyl-N^2-(1-oxido-7,8,9,10-tetrahydronaphtho[2,1-e][1,2,4]triazin-3-yl)-1,2-ethanediamine]
10 | 270 to 274 °C | Nc1nc2cc3c(cc2[n+]([O-])n1)CCCC3 [Compound 175, 6,7,8,9-Tetrahydronaphtho[2,3-e][1,2,4]triazin-3-amine 1-Oxide]
11 | 149 to 151 °C | CN(C)CCNc1nc2cc3c(cc2[n+]([O-])n1)CCCC3 [Compound 177, N^1-(1-Oxido-6,7,8,9-tetrahydronaphtho[2,3-e][1,2,4]triazin-3-yl)-N^2,N^2-dimethyl-1,2-ethanediamine]
12 | 148 to 151 °C | CN(C)CCNc1n[n+]([O-])c2cc3c(cc2[n+]1[O-])CCCC3 [Compound 178, N^1-(1,4-Dioxido-6,7,8,9-tetrahydronaphtho[2,3-e][1,2,4]triazin-3-yl)-N^2,N^2-dimethyl-1,2-ethanediamine]
13 | 115 to 116 °C | [O-][n+]1nc(NCCCN2CCOCC2)nc2cc3c(cc21)CCCC3 [Compound 179, N-[3-(4-Morpholinyl)propyl]-6,7,8,9-tetrahydronaphtho[2,3-e][1,2,4]triazin-3-amine 1-Oxide]
14 | 261 to 265 °C | Nc1nc2cc3c(cc2[n+]([O-])n1)CCCCC3 [Compound 186, 7,8,9,10-Tetrahydro-6H-cyclohepta[g][1,2,4]benzotriazin-3-amine 1-Oxide]
15 | 149 to 152 °C | CN(C)CCNc1nc2cc3c(cc2[n+]([O-])n1)CCCCC3 [Compound 188, N^1,N^1-Dimethyl-N^2-(1-oxido-7,8,9,10-tetrahydro-6H-cyclohepta[g][1,2,4]benzotriazin-3-yl)-1,2-ethanediamine]
16 | 241 to 246 °C | Nc1nc2cc3c(cc2[n+]([O-])n1)OCC3 [Compound 195, 6,7-Dihydrofuro[3,2-g][1,2,4]benzotriazin-3-amine 1-Oxide]
17 | 153 to 157 °C | CN(C)CCNc1nc2cc3c(cc2[n+]([O-])n1)OCC3 [Compound 197, N^1,N^1-Dimethyl-N^2-(1-oxido-6,7-dihydrofuro[3,2-g][1,2,4]benzotriazin-3-yl)-1,2-ethanediamine]
18 | 142 to 144 °C | [O-][n+]1nc(NCCCN2CCOCC2)nc2cc3c(cc21)OCC3 [Compound 199, N-[3-(4-Morpholinyl)propyl]-6,7-dihydrofuro[3,2-g][1,2,4]benzotriazin-3-amine 1-Oxide]
19 | 293 to 296 °C | Nc1nc2cc3c(cc2[n+]([O-])n1)CCO3 [Compound 204, 7,8-Dihydrofuro[2,3-g][1,2,4]benzotriazin-3-amine 1-Oxide]
20 | 203 to 205 °C | [O-][n+]1nc(Cl)nc2cc3c(cc21)CCO3 [Compound 206, 3-Chloro-7,8-dihydrofuro[2,3-g][1,2,4]benzotriazine 1-Oxide]
21 | 163 to 165 °C | CN(C)CCNc1nc2cc3c(cc2[n+]([O-])n1)CCO3 [Compound 207, N^1,N^1-Dimethyl-N^2-(1-oxido-7,8-dihydrofuro[2,3-g][1,2,4]benzotriazin-3-yl)-1,2-ethanediamine]

Row | melting point | Compound
22 | 150 to 151 °C | CCN(CC)CCNc1nc2cc3c(cc2[n+]([O-])n1)CCO3 [Compound 209, N^1,N^1-Diethyl-N^2-(1-oxido-7,8-dihydrofuro[2,3-g][1,2,4]benzotriazin-3-yl)-1,2-ethanediamine]
23 | 152 to 154 °C | [O-][n+]1nc(NCCCN2CCOCC2)nc2cc3c(cc21)CCO3 [Compound 211, N-[3-(4-Morpholinyl)propyl]-7,8-dihydrofuro[2,3-g][1,2,4]benzotriazin-3-amine 1-Oxide]
24 | 192 to 194 °C | [O-][n+]1nc(I)nc2cc3c(cc21)CCO3 [Compound 213, 3-Iodo-7,8-dihydrobenzofuro[6,5-e][1,2,4]triazine 1-Oxide]
25 | 140 to 142 °C | O=CCCc1nc2cc3c(cc2[n+]([O-])n1)CCO3 [Compound 214, 3-(1-Oxido-7,8-dihydrofuro[2,3-g][1,2,4]benzotriazin-3-yl)propanal]
26 | 96 to 99 °C | [O-][n+]1nc(CCCN2CCOCC2)nc2cc3c(cc21)CCO3 [Compound 215, 3-[3-(4-Morpholinyl)propyl]-7,8-dihydrofuro[2,3-g][1,2,4]benzotriazine 1-Oxide]
27 | 192 to 194 °C | CN(C)CCNc1nc2cc3c(cc2[n+]([O-])n1)OCO3 [Compound 223, N^1,N^1-Dimethyl-N^2-(1-oxido[1,3]dioxolo[4,5-g][1,2,4]benzotriazin-3-yl)-1,2-ethanediamine]
28 | 275 to 279 °C (dec.) | Nc1nc2ccc3c(c2[n+]([O-])n1)CCCO3 [Compound 234, 9,10-Dihydro-8H-chromeno[6,5-e][1,2,4]triazin-3-amine 1-Oxide]
29 | 119 to 120 °C | CN(C)CCNc1nc2ccc3c(c2[n+]([O-])n1)CCCO3 [Compound 236, N^1,N^1-Dimethyl-N^2-(1-oxido-9,10-dihydro-8H-chromeno[6,5-e][1,2,4]triazin-3-yl)-1,2-ethanediamine]
30 | 280 to 283 °C | Nc1nc2cc3c(cc2[n+]([O-])n1)OCCC3 [Compound 239, 7,8-Dihydro-6H-chromeno[6,7-e][1,2,4]triazin-3-amine 1-Oxide]
31 | 150 to 152 °C | CN(C)CCNc1nc2cc3c(cc2[n+]([O-])n1)OCCC3 [Compound 241, N^1,N^1-Dimethyl-N^2-(1-oxido-7,8-dihydro-6H-chromeno[6,7-e][1,2,4]triazin-3-yl)-1,2-ethanediamine]
32 | 151 to 152 °C | [O-][n+]1nc(NCCCN2CCOCC2)nc2cc3c(cc21)OCCC3 [Compound 243, N-[3-(4-Morpholinyl)propyl]-7,8-dihydro-6H-chromeno[6,7-e][1,2,4]triazin-3-amine 1-Oxide]
33 | 218 °C | CCN1Cc2cc3nc(N)n[n+]([O-])c3cc2C1 [Compound 249, 7-Ethyl-7,8-dihydro-6H-[1,2,4]triazino[5,6-f]isoindol-3-amine 1-Oxide]
34 | 170 to 175 °C | CN1CCc2cc3c(cc2C1)nc(N)n[n+]3[O-] [Compound 256, 7-Methyl-6,7,8,9-tetrahydro[1,2,4]triazino[6,5-g]isoquinolin-3-amine 1-Oxide]
35 | 179 °C (dec.) | CN1CCc2cc3c(cc2C1)nc(Cl)n[n+]3[O-] [Compound 257, 3-Chloro-7-methyl-6,7,8,9-tetrahydro[1,2,4]triazino[6,5-g]isoquinoline 1-Oxide]
36 | 193 to 196 °C | CCNc1nc2cc3c(cc2[n+]([O-])n1)CCN(C)C3 [Compound 258, N-Ethyl-7-methyl-6,7,8,9-tetrahydro[1,2,4]triazino[6,5-g]isoquinolin-3-amine 1-Oxide]
37 | 129 to 131 °C | CCc1nc2cc3c(cc2[n+]([O-])n1)CCN(C)C3 [Compound 260, 3-Ethyl-7-methyl-6,7,8,9-tetrahydro[1,2,4]triazino[6,5-g]isoquinoline 1-Oxide]
38 | 226 to 229 °C | CN1CCc2ccc3nc(N)n[n+]([O-])c3c2C1 [Compound 262, 9-Methyl-7,8,9,10-tetrahydro[1,2,4]triazino[5,6-h]isoquinolin-3-amine 1-Oxide]
39 | 200 to 205 °C | CN1CCc2ccc3nc(Cl)n[n+]([O-])c3c2C1 [Compound 263, 3-Chloro-9-methyl-7,8,9,10-tetrahydro[1,2,4]triazino[5,6-h]isoquinoline 1 Oxide]
40 | 99 to 102 °C | CCc1nc2ccc3c(c2[n+]([O-])n1)CN(C)CC3 [Compound 264, 3-Ethyl-9-methyl-7,8,9,10-tetrahydro[1,2,4]triazino[5,6-h]isoquinoline 1 Oxide]
41 | 117 to 121 °C | CCc1n[n+]([O-])c2c3c(ccc2[n+]1[O-])CCN(C)C3 [Compound 265, 3-Ethyl-9-methyl-7,8,9,10-tetrahydro[1,2,4]triazino[5,6-h]isoquinoline 1,4-Dioxide]
